Legend:
Type in all cases: cell-based
[1] = test system: Citrobacter freundii ISP1949/99; experiment: Sensidisc and thin cloth growth inhibition test (Example 3); design: unit not given here
Description: (§1) In this example, the antimicrobial activity of the invention was determined by testing on sensidiscs. On order to do this, they were prepared 5 mm filter paper discs, embedded with various concentrations of compound Cu4SO4(OH)6 (Alkaline Copper Sulfate) of the study dissolved in DMSO (0 μg, 200 μg, 400 μg, 600 μg, 800 μg). In addition, pieces of cloth of about 2×2 cm were prepared and embedded with the new product. Paper discs and fabric were deposited on a background lawn, which was performed as follows:
(§2) From a bacterial culture of 16 hours, with the strain of interest, it was performed a 1/30 dilution of the culture with fresh medium and incubated under stirring at 37° C. until reaching the exponential growth phase (D0600 nm 0.4-0.5). It was taken an aliquot of 100 μL of the culture in exponential phase, and deposited in 4 mL of Mueller-Hinton soft agar at 0.8% (previously melted and stabilized at 50° C.). The mixture was deposited on a Petri dish with 20 mL of Mueller-Hinton agar base. Once the agar was gelled, each of the discs with different amounts of the test compound were deposited on the background lawn, and incubated at 37° C. during 48 hours.
(§3) Experiments were performed in triplicate in independently, using as negative control discs with the solvent DMSO alone and cloth without the product of study. As positive control were used commercial discs used with 30 μg of antibiotic Kanamycin (Km).

[2] = test system: Acinetobacter baumannii UDP456; experiment: as above; design: unit not given here
Description: as §1, §2, §3

[3] = test system: Staphylococcus epidermidis; experiment: as above; design: unit not given here
Description: as §1, §2, §3

[4] = test system: Enterobacter aerogenes ATCC13048; experiment: as above; design: unit not given here
Description: as §1, §2, §3

[5] = test system: Enterococcus faecium ISP133/04; experiment: as above; design: unit not given here
Description: as §1, §2, §3

[6] = test system: Escherichia coli ATCC25922; experiment: as above; design: unit not given here
Description: as §1, §2, §3

[7] = test system: all bacterial strains tested; experiment: Antibacterial activity of alkaline copper sulfate, summary (Example 3); settings: summary in words of Table 5
Description: as §1, §2
Experiments were performed in triplicate in independently, using as negative control discs with the solvent DMSO alone and cloth without the product of study. […]

[8] = test system: Klebsiella pneumoniae ATCC4352; experiment: Sensidisc and thin cloth growth inhibition test (Example 3)
Description: as §1, §2, §3

[9] = test system: Staphylococcus aureus ATCC25923; experiment: as above
Description: as §1, §2, §3

[10] = test system: Enterococcus faecalis ATCC29212; experiment: as above
Description: as §1, §2, §3

[11] = test system: Streptococcus pneumonia ATCC14325; experiment: as above
Description: as §1, §2, §3

[12] = test system: Pseudomonas aeruginosa PAOI; experiment: as above
Description: as §1, §2, §3

[13] = test system: Streptococcus pyogenes ATCC2367; experiment: as above
Description: as §1, §2, §3

[14] = test system: Acinetobacter baumanii UDP456; experiment: Disc growth inhibition halo test (Example 2)
[15] = test system: Staphylococcus epidermidis ATCC25923; experiment: Disc growth inhibition halo test (Example 2)
[16] = test system: Staphylococcus aureus ATCC25923; experiment: Disc growth inhibition halo test (Example 2)
[17] = test system: Citrobacter freundii ISP1949/99; experiment: Disc growth inhibition halo test (Example 2)
[18] = test system: Enterococcus faecium ISP133/04; experiment: Disc growth inhibition halo test (Example 2)
[19] = test system: Enterobacter aerogenes ATCC13048; experiment: Disc growth inhibition halo test (Example 2)
[20] = test system: Escherichia coli ATCC25922; experiment: Disc growth inhibition halo test (Example 2)
[21] = test system: Streptococcus pyogenes ATCC2367; experiment: Disc growth inhibition halo test (Example 2)
[22] = test system: Klebsiella pneumoniae ATCC4352; experiment: Disc growth inhibition halo test (Example 2)
[23] = test system: Enterococcus faecalis ATCC29212; experiment: Disc growth inhibition halo test (Example 2)
[24] = test system: Streptococcus pneumoniae ATCC14325; experiment: Disc growth inhibition halo test (Example 2)
[25] = test system: Pseudomonas aeruginosa PAOI; experiment: Disc growth inhibition halo test (Example 2)

## O=S(=O)([O-])[O-].[Cu+2].[Cu+2].[Cu+2].[Cu+2].[OH-].[OH-].[OH-].[OH-].[OH-].[OH-] [Alkaline Copper Sulphate, Alkaline Copper Sulfate]
[1]; 200 μg on 5 mm disc
  Growth inhibition zone: 8.0 ± 1.0
[1]; 400 μg on 5 mm disc
  Growth inhibition zone: 10.7 ± 1.5
[1]; 600 μg on 5 mm disc
  Growth inhibition zone: 11.3 ± 0.6
[1]; 800 μg on 5 mm disc
  Growth inhibition zone: 11.3 ± 1.5
[2]; 200 μg on 5 mm disc
  Growth inhibition zone: 11.7 ± 0.6
[2]; 400 μg on 5 mm disc
  Growth inhibition zone: 15.7 ± 0.6
[2]; 600 μg on 5 mm disc
  Growth inhibition zone: 17.0 ± 1.0
[2]; 800 μg on 5 mm disc
  Growth inhibition zone: 19.7 ± 0.6
[3]; 200 μg on 5 mm disc
  Growth inhibition zone: 12.0 ± 0.6
[3]; 400 μg on 5 mm disc
  Growth inhibition zone: 14.3 ± 0.6
[3]; 600 μg on 5 mm disc
  Growth inhibition zone: 13.7 ± 1.5
[3]; 800 μg on 5 mm disc
  Growth inhibition zone: 14.6 ± 0.6
[4]; 200 μg on 5 mm disc
  Growth inhibition zone: 7.3 ± 1.5
[4]; 400 μg on 5 mm disc
  Growth inhibition zone: 9.7 ± 1.5
[4]; 600 μg on 5 mm disc
  Growth inhibition zone: 9.7 ± 0.6
[4]; 800 μg on 5 mm disc
  Growth inhibition zone: 9.7 ± 1.5
[5]; 200 μg on 5 mm disc
  Growth inhibition zone: 6.0 ± 1.0
[5]; 400 μg on 5 mm disc
  Growth inhibition zone: 6.0 ± 1.0
[5]; 600 μg on 5 mm disc
  Growth inhibition zone: 6.0 ± 1.0
[5]; 800 μg on 5 mm disc
  Growth inhibition zone: 6.0 ± 1.0
[6]; 200 μg on 5 mm disc
  Growth inhibition zone: 13.3 ± 1.4
[6]; 400 μg on 5 mm disc
  Growth inhibition zone: 13.0 ± 0.7
[6]; 600 μg on 5 mm disc
  Growth inhibition zone: 15.0 ± 0.7
[6]; 800 μg on 5 mm disc
  Growth inhibition zone: 13.3 ± 0.7
[7]; listed as Alkaline Copper Sulfate (OH)6
  antibacterial activity: antibacterial activity on all bacterial strains tested
[7]; listed as product of invention
  antibacterial activity: spectrum of antibacterial activity greater than the hydroxyphosphate copper compounds (II) and copper oxychloride (II)
[8]; 200 μg on 5 mm disc
  Growth inhibition zone: 7.3 ± 0.6 mm
[8]; 400 μg on 5 mm disc
  Growth inhibition zone: 8.7 ± 0.6 mm
[8]; 600 μg on 5 mm disc
  Growth inhibition zone: 9.7 ± 0.6 mm
[8]; 800 μg on 5 mm disc
  Growth inhibition zone: 10.0 mm
[9]; 200 μg on 5 mm disc
  Growth inhibition zone: 6.0 ± 1.0 mm
[9]; 400 μg on 5 mm disc
  Growth inhibition zone: 10.3 ± 0.6 mm
[9]; 600 μg on 5 mm disc
  Growth inhibition zone: 11.7 ± 0.6 mm
[9]; 800 μg on 5 mm disc
  Growth inhibition zone: 14.0 ± 1.0 mm
[10]; 200 μg on 5 mm disc
  Growth inhibition zone: 6.0 ± 1.0 mm
[10]; 400 μg on 5 mm disc
  Growth inhibition zone: 6.0 ± 1.0 mm
[10]; 600 μg on 5 mm disc
  Growth inhibition zone: 6.0 ± 1.0 mm
[10]; 800 μg on 5 mm disc
  Growth inhibition zone: 6.0 ± 1.0 mm
[11]; 200 μg on 5 mm disc
  Growth inhibition zone: 5.0 ± 1.0 mm
[11]; 400 μg on 5 mm disc
  Growth inhibition zone: 8.0 ± 0.7 mm
[11]; 600 μg on 5 mm disc
  Growth inhibition zone: 9.0 ± 1.0 mm
[11]; 800 μg on 5 mm disc
  Growth inhibition zone: 11.0 ± 1.2 mm
[12]; 200 μg on 5 mm disc
  Growth inhibition zone: 6.3 ± 1.5 mm
[12]; 400 μg on 5 mm disc
  Growth inhibition zone: 6.7 ± 1.2 mm
[12]; 600 μg on 5 mm disc
  Growth inhibition zone: 8.3 ± 0.6 mm
[12]; 800 μg on 5 mm disc
  Growth inhibition zone: 8.3 ± 1.7 mm
[13]; 200 μg on 5 mm disc
  Growth inhibition zone: 5.0 ± 1.0 mm
[13]; 400 μg on 5 mm disc
  Growth inhibition zone: 6.0 ± 1.0 mm
[13]; 600 μg on 5 mm disc
  Growth inhibition zone: 7.0 ± 1.2 mm
[13]; 800 μg on 5 mm disc
  Growth inhibition zone: 8.0 ± 1.4 mm

## O=P([O-])([O-])[O-].[Cu+2].[Cu+2].[OH-] [Copper hydroxyphosphate compound (II), copper hydroxyphosphate (II)]
[14]; 200 μg on 5 mm disc
  Growth inhibition zone: 5.0 mm
[14]; 400 μg on 5 mm disc
  Growth inhibition zone: 8.6 ± 0.6 mm
[14]; 600 μg on 5 mm disc
  Growth inhibition zone: 7.3 ± 2 mm
[14]; 800 μg on 5 mm disc
  Growth inhibition zone: 7.6 ± 2.3 mm
[15]; 200 μg on 5 mm disc
  Growth inhibition zone: 5.0 mm
[15]; 400 μg on 5 mm disc
  Growth inhibition zone: 5.0 mm
[15]; 600 μg on 5 mm disc
  Growth inhibition zone: 5.6 ± 0.5 mm
[15]; 800 μg on 5 mm disc
  Growth inhibition zone: 6.3 ± 1.1 mm
[16]; 200 μg on 5 mm disc
  Growth inhibition zone: 5.0 mm
[16]; 400 μg on 5 mm disc
  Growth inhibition zone: 5.0 mm
[16]; 600 μg on 5 mm disc
  Growth inhibition zone: 5.0 mm
[16]; 800 μg on 5 mm disc
  Growth inhibition zone: 5.0 mm
[17]; 200 μg on 5 mm disc
  Growth inhibition zone: 5.0 mm
[17]; 400 μg on 5 mm disc
  Growth inhibition zone: 5.0 mm
[17]; 600 μg on 5 mm disc
  Growth inhibition zone: 5.0 mm
[17]; 800 μg on 5 mm disc
  Growth inhibition zone: 5.0 mm
[18]; 200 μg on 5 mm disc
  Growth inhibition zone: 5.0 mm
[18]; 400 μg on 5 mm disc
  Growth inhibition zone: 5.0 mm
[18]; 600 μg on 5 mm disc
  Growth inhibition zone: 5.0 mm
[18]; 800 μg on 5 mm disc
  Growth inhibition zone: 5.0 mm
[19]; 200 μg on 5 mm disc
  Growth inhibition zone: 5.0 mm
[19]; 400 μg on 5 mm disc
  Growth inhibition zone: 5.0 mm
[19]; 600 μg on 5 mm disc
  Growth inhibition zone: 5.0 mm
[19]; 800 μg on 5 mm disc
  Growth inhibition zone: 5.0 mm
[20]; 200 μg on 5 mm disc
  Growth inhibition zone: 5.0 mm
[20]; 400 μg on 5 mm disc
  Growth inhibition zone: 5.0 mm
[20]; 600 μg on 5 mm disc
  Growth inhibition zone: 5.0 mm
[20]; 800 μg on 5 mm disc
  Growth inhibition zone: 5.0 mm
[21]; 200 μg on 5 mm disc
  Growth inhibition zone: 5.0 mm
[21]; 400 μg on 5 mm disc
  Growth inhibition zone: 5.0 mm
[21]; 600 μg on 5 mm disc
  Growth inhibition zone: 5.0 mm
[21]; 800 μg on 5 mm disc
  Growth inhibition zone: 8.6 ± 0.6 mm
[22]; 200 μg on 5 mm disc
  Growth inhibition zone: 5.0 mm
[22]; 400 μg on 5 mm disc
  Growth inhibition zone: 5.0 mm
[22]; 600 μg on 5 mm disc
  Growth inhibition zone: 5.0 mm
[22]; 800 μg on 5 mm disc
  Growth inhibition zone: 5.0 mm
[23]; 200 μg on 5 mm disc
  Growth inhibition zone: 5.0 mm
[23]; 400 μg on 5 mm disc
  Growth inhibition zone: 5.0 mm
[23]; 600 μg on 5 mm disc
  Growth inhibition zone: 5.0 mm
[23]; 800 μg on 5 mm disc
  Growth inhibition zone: 5.0 mm
[24]; 200 μg on 5 mm disc
  Growth inhibition zone: 5.0 mm
[24]; 400 μg on 5 mm disc
  Growth inhibition zone: 5.0 mm
[24]; 600 μg on 5 mm disc
  Growth inhibition zone: 5.0 mm
[24]; 800 μg on 5 mm disc
  Growth inhibition zone: 5.0 mm
[25]; 200 μg on 5 mm disc
  Growth inhibition zone: 5.0 mm
[25]; 400 μg on 5 mm disc
  Growth inhibition zone: 5.0 mm
[25]; 600 μg on 5 mm disc
  Growth inhibition zone: 5.0 mm
[25]; 800 μg on 5 mm disc
  Growth inhibition zone: 5.0 mm

From patent publication US9924714B2, “Impregnatable matrix of plant, animal or synthetic origin or mixtures of same, containing a uniformly distributed antimicrobial compound, method for impregnating said matrix with a compound, and use thereof in the production of antimicrobial elements” (COMPAÑIA MINERA SAN GERONIMO, priority 2013, dated 2018)
